Experimental data from patent US20060111409A1, “Medicament for treatment of diabetes” (priority 2002, published 2006).

melting point: 218 to 219 °C
Structure (SMILES): CC(=O)Oc1ccccc1C(=O)Nc1cc(Cl)cc(Cl)c1
